We go through one substance from patent publication US20250099466A1 (BRISTOL-MYERS SQUIBB COMPANY, priority 2021, published 2025).

The data set concerns electrically induced carotid artery thrombosis (ECAT) in rabbits; rabbit FXI mRNA. In words: Rabbit ECAT model after FXI antisense oligonucleotide treatment. The format is in vivo. To be noted: subcutaneous twice weekly for 4 weeks. As for the experimental part:
The rabbit ECAT model, described by Wong et al. was used in the rabbit ECAT study (Wang et al. J. Pharmacol. Exp. Ther. 295:212-8, 2002). The ECAT model was conducted 3 to 4 days after the last dose of vehicle, FXI-ASO2, or FXI-ASO1. FXI-ASO1 has the nominal nucleotide sequence of […] (SEQ ID NO: 1) and is complementary to a sequence within rabbit FXI mRNA. FXI-ASO2 (control ASO) has the nominal nucleotide sequence of […] (SEQ ID NO: 2) and has no known complementary sequence in rabbit mRNA. Oligonucleotides were chemically modified with phosphorothioate in the backbone and 2′-O-methoxyethyl on the wings with a central deoxy gap (so-called 5-10-5 design). Cytosine bases were rendered as 5-methylcytosine.
Separate samples for each dose of FXI-ASO1 and FXI-ASO2 were weighed on an analytical balance. […]
Male New Zealand White rabbits were anesthetized with ketamine (50 mg/kg+50 mg/kg/h intramuscularly) and xylazine (10 mg/kg+10 mg/kg/h intramuscularly). […] Carotid blood flow was measured with an electromagnetic flow probe continuously beginning 30 min before the electrical stimulation and over a 90-min period after stimulation to monitor thrombosis-induced occlusion. Integrated carotid blood flow, as a percentage of pre-electrical stimulation control period, was measured by the area under the flow-time curve. […]

Oligonucleotides are written 5' to 3', each unit as a sugar letter and its base; * is a phosphorothioate linkage, no mark a phosphodiester; rarer units and linkages stand in square brackets, end groups in braces. Plain capitals give the bases only. e = 2'-O-(2-methoxyethyl) (MOE); [5mC] = 5-methylcytosine; d = 2'-deoxy (DNA)

“FXI-ASO2: control ASO CCTTCCCTGAAGGTTCCTCC (SEQ ID NO: 2), no known complementary sequence in rabbit mRNA (e[5mC]*e[5mC]*eT*eT*e[5mC]*d[5mC]*d[5mC]*dT*dG*dA*dA*dG*dG*dT*dT*e[5mC]*e[5mC]*eT*e[5mC]*e[5mC])”: the thrombus weight result is given as “did not reduce thrombus weight”.
